Measured values: paper PMC4481117 (Molecular Pain, 2015)

Assays:
[1] = system: wild-type macrophages; test: Transwell migration of wild-type peritoneal macrophages to Dyn A; type: cell-based, mouse; conditions: 10 μM Dyn A, 90 min at 37 °C, TG-elicited
Experimental: (§1) Fig. 6 Migration of Mac-1-expressing cells to Dyn A in a Transwell system. a, Mac-1-expressing HEK 293 cells (100 μl at 3 × 10^6 cell/ml) were added to the upper wells of the transwell chamber and their ability to migrate to different concentrations of Dyn A placed in the lower chamber was analyzed. After 16 hours at 37 °C, migrated cells were fixed, stained, and counted. Data are presented as numbers of migrated cells per field ± S.E. for five random fields per well. The figure is representative of 5 experiments. b, Mac-1-expressing or wild-type HEK 293 cells were added to the upper wells of the transwell chamber and their ability to migrate to 10 μM Dyn A placed in the lower chamber was analyzed as in A. Some Mac-1-HEK293 cells were pretreated with 20 μg/ml of mAbs 44a (anti-αM), IB4 (anti-β2) or OKM1 (non function-blocking anti-αM) or medium alone before addition to the upper wells. ***, medium alone. […] The number of migrated cells was determined as in A. Data are presented as number of migrated cells per field ± S.E. for five random fields per well. […]
(§2) Migration assays with wild-type and Mac-1-expressing HEK293 cells and purified macrophages using Transwell inserts (5 μm pore size) were performed as previously described. […] The photographs were taken using a 20x objective and cells in […] and cells were counted. […]

[2] = system: Mac-1-deficient macrophages; test: Transwell migration of Mac-1-deficient peritoneal macrophages to Dyn A; type: cell-based, mouse; conditions: 10 μM Dyn A, 90 min at 37 °C, TG-elicited
Experimental: as §1, §2

[3] = system: αMI-domain (active and nonactive forms); test: Solid-phase binding of active and nonactive GST-αMI-domains; conditions: immobilized peptide, 1.5 h at 22 °C, anti-GST detection, 405 nm; means of triplicates, representative of n = 4
Experimental: Fig. 2 Binding of the active and nonactive αMI-domain conformers to dynorphin. a, the 3D structure of active (PDB ID 1ido) and nonactive (PDB ID 1jlm) αMI-domains are shown as ribbon diagrams. The wells of microtiter plates were coated with different concentrations of dynorphin A (b) and the D100 fragment of fibrinogen (c). The active (●) and nonactive (○) recombinant αMI-domains containing GST fusion parts were added to the wells and incubated for 1.5 h at 22 °C. Bound αMI-domains were detected with an anti-GST mAb followed by an AP-conjugated secondary antibody. Data are the means of triplicate determinations, and error bars represent S.E. Representative experiments in b (n = 4) and c (n = 4) are shown. For multiple comparisons, individual concentrations were tested using t-test with p-value of 0.05 corrected by Bonferroni method and accepting values of 0.007 as significant (**).
Dyn A ([…]), Dyn B ([…]), and control peptide ([…]) were purchased from AnaSpec, Inc (San Jose, CA). […]
Microtiter plates were coated with different concentrations of the fibrinogen D100 fragment or Dyn A overnight at 4 °C and post-coated with 3 % BSA for 1 h. […] After washing, goat anti-mouse IgG conjugated to alkaline phosphatase was added for 1 h and the binding of the αMI-domains was detected by reaction with p-nitrophenyl phosphate measuring the absorbance at 405 nm. […]

CC[C@H](C)[C@H](NC(=O)[C@H](CCCNC(=N)N)NC(=O)[C@H](CCCNC(=N)N)NC(=O)[C@H](CC(C)C)NC(=O)[C@H](Cc1ccccc1)NC(=O)CNC(=O)CNC(=O)[C@@H](N)Cc1ccc(O)cc1)C(=O)N[C@@H](CCCNC(=N)N)C(=O)N1CCC[C@H]1C(=O)N[C@@H](CCCCN)C(=O)N[C@@H](CC(C)C)C(=O)N[C@@H](CCCCN)C(=O)N[C@@H](Cc1c[nH]c2ccccc12)C(=O)N[C@@H](CC(=O)O)C(=O)N[C@@H](CC(N)=O)C(=O)N[C@@H](CCC(N)=O)C(=O)O [Dyn A]
Migration of wild-type macrophages (in words) [1]: migrated to Dyn A | Migration of Mac-1-deficient macrophages (in words) [2]: significantly impaired | Difference in binding of active and nonactive αMI-domains [3]: No significant difference in binding of active and nonactive αMI-domains
